The values that follow come from ChEMBL document CHEMBL1201862, “PubChem BioAssay data set” (2004).

Among the test systems are A549; CAKI-1; CCRF-CEM; HCT-15; MCF7; MDA-MB-231; NCI/ADR-RES; OVCAR-4; OVCAR-5; OVCAR-8; RPMI-8226; SW-620; T47D; UO-31; LOX IMVI; SNB-75; NCI-H226.
Assay in all cases: growth of human tumour cells (NCI), 48 h

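The compound was tested at five concentrations on cells cultured in 96-well plates, with a 48-hour exposure period. Abbreviation: GI50, concentration required for 50% inhibition of growth.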 Calls of active or inactive are those of the source. No stated cut-off is given here; in the data, active = GI50 up to about 1.1 µM and inactive = higher.

`CCN(CC)CCNc1ccc2nnn3c4ccc(OCCN(CC)CC)cc4c(=O)c1c23`: the GI50 was 44.9 µM (inactive) in the test with A549; 66.1 µM (inactive) with CAKI-1; 16.4 µM (inactive) with CCRF-CEM; 64.6 µM in the test with HCT-15; 33.6 µM (inactive) in the test with MCF7; 23.1 µM (inactive) in the test on MDA-MB-231. In addition, the GI50 was 57.7 µM (inactive) in the test with NCI/ADR-RES; 16.3 µM (inactive) with OVCAR-4; > 100 µM (inactive) in the test with OVCAR-5; 27.9 µM (inactive) in the test on OVCAR-8; 26.8 µM (inactive) in the test with RPMI-8226; 38.2 µM (inactive) with SW-620. In addition, the GI50 in the test with T47D is > 100 µM (inactive); with UO-31 it was 89.9 µM (inactive).
Take `COc1cccc(NC(=O)CC(=O)N2N=C(C)C(/N=N/c3ccc(C(=O)O)cc3)C2=O)c1` (configuration not stated): the GI50 in the test with A549 is > 100 µM (inactive); in the test with CAKI-1, > 100 µM (inactive); in the test on CCRF-CEM it was > 100 µM (inactive); in the test on HCT-15, more than 100 µM; in the test with LOX IMVI, > 100 µM (inactive); in the test with MCF7 it was > 100 µM (inactive). Further, the GI50 with MDA-MB-231, in the test on NCI/ADR-RES, in the test on OVCAR-4, in the test on OVCAR-5, in the test with OVCAR-8 and with RPMI-8226 was > 100 µM (inactive) each time. The GI50 in the test on SNB-75 is 16.6 µM (inactive); in the test on SW-620, > 100 µM (inactive); with T47D, > 100 µM (inactive); in the test on UO-31, > 100 µM (inactive).
In the case of `NC(=O)c1c(NC=O)ncn1C1OCC(O)C(O)C1O` (configuration not stated), the GI50 is > 100 µM (inactive) with A549; > 100 µM (inactive) with CAKI-1; > 100 µM (inactive) in the test on CCRF-CEM; more than 100 µM with HCT-15; > 100 µM (inactive) with LOX IMVI; > 100 µM (inactive) in the test with MDA-MB-231. For the same molecule, the GI50 in the test on NCI-H226, in the test with NCI/ADR-RES, in the test with OVCAR-4, with OVCAR-5, with OVCAR-8 and in the test with RPMI-8226 was > 100 µM (inactive) throughout. The GI50 with SNB-75, in the test on SW-620, in the test on T47D and with UO-31 was > 100 µM (inactive) in each case.
Turning to `c1ccc2c(c1)NC(C1OC3CCCN3C1C1Nc3ccccc3S1)S2` (configuration not stated), the GI50 is > 100 µM (inactive) in the test with A549; > 100 µM (inactive) with CAKI-1; 35.8 µM (inactive) in the test with CCRF-CEM; 48.9 µM in the test with HCT-15; 44.2 µM (inactive) in the test with MCF7; 63.4 µM (inactive) in the test with OVCAR-4. Further, the GI50 in the test on OVCAR-5 is > 100 µM (inactive); in the test on OVCAR-8 it was 52.1 µM (inactive); with RPMI-8226 it was 23 µM (inactive); with SNB-75, 69.7 µM (inactive); with SW-620, > 100 µM (inactive); in the test on UO-31, 55.1 µM (inactive).
Regarding `O=C1OC(=O)C2=C1C(c1cccs1)C=C(c1cccnc1)N2c1ccncc1` (configuration not stated), the GI50 in the test with A549 is 17.6 µM (inactive); in the test with CAKI-1, 15.1 µM (inactive); with CCRF-CEM, 20.1 µM (inactive); with HCT-15, 14.2 µM; with LOX IMVI, 13.2 µM (inactive); in the test on MDA-MB-231, 19.9 µM (inactive). Further, the GI50 in the test on NCI-H226 is 21.6 µM (inactive); in the test on NCI/ADR-RES, 29.4 µM (inactive); with OVCAR-4, 20 µM (inactive); in the test on OVCAR-5, 12.2 µM (inactive); with OVCAR-8 it was 21.6 µM (inactive); with RPMI-8226, 13 µM (inactive). Also, the GI50 in the test on SNB-75 was 15.2 µM (inactive); in the test with SW-620, 20.7 µM (inactive); with T47D, 18.2 µM (inactive); with UO-31, 15.6 µM (inactive).
For the molecule `O=P1(O)C=CC2(CCCC2)O1`, the GI50 with A549 was > 100 µM (inactive); with HCT-15, more than 100 µM; with LOX IMVI, > 100 µM (inactive); in the test on MCF7, > 100 µM (inactive); in the test on NCI/ADR-RES, > 100 µM (inactive); in the test with OVCAR-4, > 100 µM (inactive). Besides, the GI50 in the test on OVCAR-5, in the test with OVCAR-8, with SNB-75, in the test with SW-620 and in the test on T47D was > 100 µM (inactive) in each case.
For the molecule `C[C@@H]1OC(=O)C[C@H]2CC(=O)N(CCC3CN(S(=O)(=O)C(F)(F)F)c4ccccc43)C[C@@H]21` (some centres not stated), the GI50 is > 100 µM (inactive) with A549; > 100 µM (inactive) in the test with CAKI-1; > 100 µM (inactive) with CCRF-CEM; more than 100 µM in the test with HCT-15; > 100 µM (inactive) in the test on MCF7; > 100 µM (inactive) in the test on MDA-MB-231. For the same molecule, the GI50 with NCI/ADR-RES, in the test with OVCAR-4, in the test with OVCAR-5, in the test on RPMI-8226, in the test with SW-620 and with UO-31 was > 100 µM (inactive) in each case.
`CCOP1(=O)CC(C)=C(Cl)C(OC)C1` (configuration not stated): the GI50 in the test with A549 is > 100 µM (inactive); with CAKI-1 it was > 100 µM (inactive); with CCRF-CEM, 30.1 µM (inactive); with HCT-15, more than 100 µM; in the test on LOX IMVI, 61.7 µM (inactive); in the test with MCF7 it was > 100 µM (inactive). Moreover, the GI50 in the test on MDA-MB-231, with NCI-H226, with NCI/ADR-RES, in the test on OVCAR-4, with OVCAR-5 and with OVCAR-8 was > 100 µM (inactive) in each case. The GI50 in the test on RPMI-8226, with SNB-75 and in the test on SW-620 was > 100 µM (inactive) in each case.
In the case of `CCOC(=O)C(NC(=O)Nc1ccccc1F)(OC)C(F)(F)F` (configuration not stated), the GI50 in the test on A549 was > 100 µM (inactive); with CAKI-1, 44.5 µM (inactive); with CCRF-CEM it was > 100 µM (inactive); with HCT-15, more than 100 µM; with LOX IMVI, > 100 µM (inactive); with NCI/ADR-RES, > 100 µM (inactive). Further, the GI50 with OVCAR-5, in the test on OVCAR-8, with RPMI-8226, with SNB-75, in the test on SW-620 and with T47D was > 100 µM (inactive) in each case. For the same molecule, the GI50 with UO-31 is > 100 µM (inactive).
As to `COC1(OC)C2C=CC1C([C@](C)(N)CO)C2` (some centres not stated), the GI50 in the test with A549, with CAKI-1, in the test with CCRF-CEM, with MCF7, in the test with MDA-MB-231 and in the test with NCI-H226 was > 100 µM (inactive) throughout. In addition, the GI50 with OVCAR-4, in the test on OVCAR-5, with OVCAR-8, with SNB-75, in the test with SW-620 and in the test with T47D was > 100 µM (inactive) in each case. Besides, the GI50 in the test on UO-31 is > 100 µM (inactive).
As to `O=C1c2ccccc2C(=O)c2nn(N=P(CP(=Nn3nc4c(n3)C(=O)c3ccccc3C4=O)(c3ccccc3)c3ccccc3)(c3ccccc3)c3ccccc3)nc21`, the GI50 in the test on A549 is > 100 µM (inactive); in the test with CAKI-1 it was > 100 µM (inactive); with CCRF-CEM it was > 100 µM (inactive); in the test with HCT-15 it was more than 100 µM; in the test with LOX IMVI it was > 100 µM (inactive); with MCF7, > 100 µM (inactive). The GI50 with MDA-MB-231, in the test with NCI/ADR-RES, in the test with OVCAR-4, in the test with OVCAR-5, in the test with OVCAR-8 and in the test with RPMI-8226 was > 100 µM (inactive) each time. Moreover, the GI50 in the test on SW-620 and with T47D was > 100 µM (inactive) in each case.
Turning to `[O-][n+]1c(CN2CCCCC2)nc2cccc3c2c1-c1ccccc1-3`, the GI50 is 15.7 µM (inactive) with A549; 25.4 µM (inactive) with CAKI-1; 26.9 µM with HCT-15; 19.4 µM (inactive) in the test with LOX IMVI; 4.22 µM (inactive) in the test on MCF7; 23 µM (inactive) in the test with MDA-MB-231. In addition, the GI50 is 16.9 µM (inactive) in the test with NCI-H226; 22.4 µM (inactive) in the test on NCI/ADR-RES; 31.3 µM (inactive) with OVCAR-4; 21.3 µM (inactive) with OVCAR-5; 22.8 µM (inactive) with OVCAR-8; 23.7 µM (inactive) in the test with RPMI-8226. The GI50 is 24.6 µM (inactive) in the test with SNB-75, 28.8 µM (inactive) in the test on SW-620 and 11.9 µM (inactive) in the test on UO-31.
Take `Nc1n[nH]c2nc3ccc(C(F)(F)F)cc3nc12`: the GI50 was 30.5 µM (inactive) in the test with A549; 31.5 µM (inactive) in the test with CAKI-1; 17 µM (inactive) in the test with CCRF-CEM; 23.1 µM in the test on HCT-15; 18.6 µM (inactive) with LOX IMVI; 15.3 µM (inactive) in the test on MCF7. Besides, the GI50 is 43.6 µM (inactive) in the test on MDA-MB-231; 33.4 µM (inactive) in the test with NCI/ADR-RES; 42.6 µM (inactive) in the test with OVCAR-4; 25.6 µM (inactive) in the test on OVCAR-5; 19.8 µM (inactive) in the test on OVCAR-8; 62.2 µM (inactive) in the test with RPMI-8226. The GI50 in the test on SNB-75 was 13.6 µM (inactive); with SW-620 it was 19.3 µM (inactive); with UO-31 it was 17.6 µM (inactive).
In the case of `CN(CC(=O)O)c1ccc(/C=C/c2ccnc3ccccc23)cc1`, the GI50 with A549 was 17.5 µM (inactive); with CAKI-1, 18.5 µM (inactive); in the test with CCRF-CEM, 13.8 µM (inactive); with HCT-15, 31.9 µM; in the test on LOX IMVI it was 22.3 µM (inactive); in the test on MCF7, 5.02 µM (inactive). Also, the GI50 is 27 µM (inactive) in the test on MDA-MB-231; 29.2 µM (inactive) with NCI/ADR-RES; 29.2 µM (inactive) in the test with OVCAR-5; 27.7 µM (inactive) in the test with OVCAR-8; 13.3 µM (inactive) with RPMI-8226; 24.8 µM (inactive) in the test on SNB-75. Further, the GI50 was 29.4 µM (inactive) with SW-620, 20.2 µM (inactive) with T47D and 15.7 µM (inactive) in the test on UO-31.
